# Data reported in patent US20120149101A1, “METHODS AND KITS FOR REGULATING INTRACELLULAR TRAFFICKING OF A TARGET PROTEIN” (INSTITUT CURIE, priority 2009, published 2012).
# Experiments:
# [1] = molecular target: T1, interaction between SBP-Tag and Streptavidin (Streptomyces avidinii, UniProt P22629, L133T/T100R/V149R/V79T); test: RUSH^L[ID]: release of SBP-tagged reporters from the hook Ii-Core streptavidin, by immunofluorescence and time-lapse imaging; type: cell-based, human
# T1 construct: expressed in transfected cells; host or cells: HeLa cells, transient transfection of the hook-IRES-reporter plasmid
# T1 sequence (P22629 25-183 V79T/T100R/L133T/V149R limits assumed): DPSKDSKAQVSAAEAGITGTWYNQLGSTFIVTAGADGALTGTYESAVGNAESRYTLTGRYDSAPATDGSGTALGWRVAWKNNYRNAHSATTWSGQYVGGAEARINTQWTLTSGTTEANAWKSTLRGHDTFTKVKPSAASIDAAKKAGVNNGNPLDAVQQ
# Protocol: The Reporter ST-SBP-GFP is retained in the ER in cells expressing the hook Ii-Core streptavidin. Biotin is added at time 00:00 (min sec) and the release of the reporter is followed by time-lapse fluorescent imaging using a spinning disk equipped confocal microscope at 37° C. The Reporter starts to be visible in the Golgi apparatus in a very short time (9:30) and labels massively the Golgi apparatus by 30 minutes.
# The Reporter SBP-GFP-Ecadherin is retained in the ER in cells expressing the hook Ii-Core streptavidin. Biotin is added at time 00:00 (min:sec) and the release of the reporter is followed by time-lapse fluorescent imaging using a spinning disk equipped confocal microscope at 37° C. The Reporter is visualized using GFP as a detection domain. Significant quantities of the reporter are visible in the Golgi apparatus from 03:30 and continue to increase. The reporter starts to be visible at the plasma membrane around 30:00. Note that transport intermediates (in the form of punctuate staining) are visible at early (ER to Golgi) and late (Golgi to plasma membrane) time points.
# (§1) Hela cells were grown at 37° C. in DMEM (Invitrogen) supplemented with L-glutamine, Sodium Pyruvate and 10% Fetal Calf Serum. For transient transfection, cells were plated on coverslips in 150-mm culture dishes and transfected with 25 μg of the plasmid hook-IRES-reporter using the calcium phosphate precipitation method, in presence of 25 mM HEPES. After 4 hours, cells were washed out with fresh medium and incubated overnight in presence of 3.1 nM Rapamycin (Sigma). Then cells were washed out 3 times with medium, and incubated in prewarmed medium with 3.3 μM FK506 (Cayman) and […] cycloheximide (CHX) for several time points. For each time point, 1 mL of medium containing FK506 and CHX was added into a well of a 12-well plate. Then cells were fixed with 4% PAF and processed for fluorescent microscopy. In the streptavidin/SBP set-up, transfection is done similarly but no addition is done when washing the cells after transfection. After 1-hours, biotin (10 μM) is added to induce reporter release. Then cells are then processed as in the MD set-up.
# Cells were fixed in paraformaldehyde 3% for 15 min, washed in PBS (Phosphate Buffer Saline) and free aldehydes were quenched in NH4Cl 50 mM for 5 min. Cells were then permeabilized in PBS containing Bovine Serum Albumine (BSA 0.5%) and Saponine (Sapo 0.05%) [PBS/BSA/Sapo] for 20 min and incubated with primary antibodies (human anti-Giantin, Nizak et al. 2003, Moutel et al., 2009) in the same buffer for 30 min Cells were washed in PBS and incubated in PBS/BSA/Sapo with fluorescently labelled secondary antibodies (Jackson Immunoresearch) for 20 min Nuclei were counter-stained with DAPI (4′,6-Diamidino-2-phenylindole, Sigma-Aldrich). Cells were finally washed in PBS before being mounted in Mowiol (Sigma-Aldrich) and observed by fluorescent microscopy.
# A hook was constructed using the ER localized Ii33 fused to monomeric Streptavidin (SEQ ID NO:3) (FRAP of the construct from Example 1 is replaced by monomeric Streptavidin). The reporter was the Golgi localization domain of Sialyl Transferase as used in Example 1. The Hook and reporter were co-expressed in cells and the two domains, streptavidin and SBP-tag interact by default, preventing ST transport to the Golgi apparatus. Release of ST was achieved using moderate concentration of free biotin (around 1-10 μM).
# [2] = molecular target: T2, interaction between SBP and core streptavidin (Streptomyces avidinii, UniProt P22629); test: RUSH^C[ID]: release of the reporter TMD22 from the hook TMD17-streptavidin; type: cell-based, human; conditions: upon biotin addition; cytoplasmic topology
# T2 construct: the FRAP domain is replaced by Core streptavidin which was amplified by PCR; expressed in transfected cells; host or cells: HeLa cells, transient transfection of the hook-IRES-reporter plasmid
# T2 sequence (P22629 with tags, fused parts or gaps): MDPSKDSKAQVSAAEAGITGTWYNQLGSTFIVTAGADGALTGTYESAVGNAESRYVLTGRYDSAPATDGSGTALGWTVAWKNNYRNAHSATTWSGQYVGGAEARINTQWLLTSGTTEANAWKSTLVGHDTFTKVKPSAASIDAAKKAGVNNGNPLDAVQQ
# Protocol: as §1
# Cells were fixed in paraformaldehyde 3% for 15 min, washed in PBS (Phosphate Buffer Saline) and free aldehydes were quenched in NH4Cl 50 mM for 5 min. […]
# [3] = upon biotin addition, surface anti-GFP
structure (smiles),measurement,setting,value
"O=C(O)CCCC[C@@H]1SC[C@@H]2NC(=O)N[C@@H]21 [Biotin, D-Biotin]",time by which reporter labels massively the Golgi apparatus,"[1]; reporter ST-SBP-GFP, biotin added at 00:00, 37° C.",≤ 30 min
same,concentration of free biotin achieving release of ST,"[1]; reporter ST, hook Ii33-Streptavidin",1 to 10 µM
same,release of reporters ST-SBP-GFP and ManII-SBP-mCherry to the Golgi apparatus,[1]; upon addition of biotin,they both reach the Golgi apparatus
same,release of reporter SBP-GFP-Ecadherin to the plasma membrane,[1]; [3],the reporter is released and reaches its target plasma membrane compartment
same,release of reporter SBP-GFP-VSV-G to the plasma membrane,[1]; [3],the reporter is released and reaches its target plasma membrane compartment
same,release of reporter TMD22 toward the plasma membrane,[2],release was observed
